Earlier results as cited in patent US12251395B2, “RNAS for complement inhibition” (Apellis Pharmaceuticals, Inc., priority 2019, dated 2025).
Bridges are numbered along the chain shown (N, C = ends). [ ]: non-standard residue; d: D form. Trp(5-F) = N[C@@H](Cc1c[nH]c2ccc(F)cc12)C(=O)O; Trp(5-Me) = Cc1ccc2[nH]cc(C[C@H](N)C(=O)O)c2c1; Trp(6-F) = N[C@@H](Cc1c[nH]c2cc(F)ccc12)C(=O)O; Bpa = N[C@@H](Cc1ccc(C(=O)c2ccccc2)cc1)C(=O)O; 1Nal = N[C@@H](Cc1cccc2ccccc12)C(=O)O; 2Nal = N[C@@H](Cc1ccc2ccccc2c1)C(=O)O; Igl = N[C@H](C(=O)O)C1Cc2ccccc2C1

tested on: complement activation; conditions: relative to compstatin amidated at the C-terminus; published data

Point of comparison: “Ac-ICWQDWGHHRCT-NH2 (cysteine pairing not given here) [Ac-compstatin]”, “Activity over corn statin” value 3xmore. Against it:
- Ac-ICV(5-methyl-W)QDWGAHRCT-CONH2 (Ac-ICV[Trp(5-Me)]QDWGAHRCT-NH2; disulfide 2-12 (inferred)) [Ac-V4(5-MeW)/H9A] — higher, 67xmore
- Ac-ICV(2-Nal)QDWGAHRCT-COOH (Ac-ICV[2Nal]QDWGAHRCT-OH; disulfide 2-12 (inferred)) [Ac V4(2-Nal)/H9A -OH] — higher, 38xmore
- Ac-ICV(1-Nal)QDWGAHRCT-COOH (Ac-ICV[1Nal]QDWGAHRCT-OH; disulfide 2-12 (inferred)) [Ac V4(1-Nal)/H9A -OH] — higher, 30xmore
- Ac-ICVYQDWGAHRCT-CONH2 [Ac-V4Y/H9A] — higher, 14xmore
- H-GICV(5fW)QD(5fW)GAHRCTN-COOH (H-GICV[Trp(5-F)]QD[Trp(5-F)]GAHRCTN-OH; disulfide 3-13 (inferred)) [G/V4(5f-W)/W7(5fW)/H9A+FN-OH] — higher, 112xmore
- Ac-ICV(2-IgI)QDWGAHRCT-CONH2 (Ac-ICV[Igl]QDWGAHRCT-NH2; disulfide 2-12 (inferred)) [Ac-V42IgI/H9A] — higher, 39xmore
- Ac-ICVWQDWGAHRCdT-COOH [Ac-V4W/H9A/T13dT -OH] — higher, 55xmore
- Ac-ICVWQDWGAHRCT-CONH2 (Ac-ICVWQDWGAHRCT-NH2; disulfide 2-12 (inferred)) [Ac-V4W/H9A] — higher, 45xmore
- Ac-ICV(2-IgI)QDWGAHRCT-COOH (Ac-ICV[Igl]QDWGAHRCT-OH; disulfide 2-12 (inferred)) [Ac-V42IgI/H9A -OH] — higher, 37xmore
- H-GICV(6fW)QD(6fW)GAHRCTN-COOH (H-GICV[Trp(6-F)]QD[Trp(6-F)]GAHRCTN-OH; disulfide 3-13 (inferred)) [+G/V4(6fW)/W7(6fW)H9A+FN-OH] — higher, 126xmore
- Ac-ICV(2-Nal)QDWGAHRCT-CONH2 (Ac-ICV[2Nal]QDWGAHRCT-NH2; disulfide 2-12 (inferred)) [Ac-V4(2-Nal)/H9A] — higher, 99xmore
- Ac-ICV(5fW)QDWGAHRCT-CONH2 (Ac-ICV[Trp(5-F)]QDWGAHRCT-NH2; disulfide 2-12 (inferred)) [Ac-V4(5fW)/H9A] — higher, 31xmore
- Ac-ICV(Bpa)QDWGAHRCT-COOH (Ac-ICV[Bpa]QDWGAHRCT-OH; disulfide 2-12 (inferred)) [Ac-V4(Bpa)/H9A -OH] — higher, 49xmore
- Ac-ICV(Bpa)QDWGAHRCT-CONH2 (Ac-ICV[Bpa]QDWGAHRCT-NH2; disulfide 2-12 (inferred)) [Ac-V4(Bpa)/H9A] — higher, 86xmore
- Ac-ICVWQD(5fW)GAHRCT-CONH2 (Ac-ICVWQD[Trp(5-F)]GAHRCT-NH2; disulfide 2-12 (inferred)) [Ac-V4W/W7(5fW)/H9A] — higher, 121xmore

tested on: complement activation; conditions: alternative pathway-mediated erythrocyte lysis assay (WO2004/026328); read-out: IC50 of compstatin

For `CC[C@H](C)[C@H](N)C(=O)N[C@H]1CSSC[C@@H](C(=O)N[C@H](C(N)=O)[C@@H](C)O)NC(=O)[C@H](CCCN=C(N)N)NC(=O)[C@H](Cc2cnc[nH]2)NC(=O)[C@H](Cc2cnc[nH]2)NC(=O)CNC(=O)[C@H](Cc2c[nH]c3ccccc23)NC(=O)[C@H](CC(=O)O)NC(=O)[C@H](CCC(N)=O)NC(=O)[C@H](C(C)C)NC(=O)[C@H](C(C)C)NC1=O` [Compstatin, H-ICVVQDWGHHRCT-CONH2], the IC50 is given as 12 µM.
